# According to patent US8921373B2, “Compounds having TRPV1 antagonistic activity and uses thereof” (Shionogi & Co., Ltd., priority 2010, dated 2014):
# pIC50: −log10 of the molar value.
# Target: human recombinant TRPV1 (Homo sapiens (Human), UniProt Q8NER1)
# Assay: TRPV1 pH-Based Assay (Protocol 2, Ca2+ response in TRPV1/CHO cells, Fura-2)
# Type: cell-based
# Details: TRPV1/CHO cells, pH 5.0-5.1; read-out: IC50 value by the pH-Based Assay
# Summary of the method: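 CHO cells stably expressing human TRPV1, Fura-2 loaded, given compound (1% DMSO in 10× stock) before acid challenge to final pH 5.0-5.1 (3.2 or 3.3 mM H2SO4). 340/380 nm ratio recorded at 0.5 Hz; maximal ratio after agonist addition versus 16-point baseline used as response.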
# Chain of human recombinant TRPV1 (Q8NER1 whole entry): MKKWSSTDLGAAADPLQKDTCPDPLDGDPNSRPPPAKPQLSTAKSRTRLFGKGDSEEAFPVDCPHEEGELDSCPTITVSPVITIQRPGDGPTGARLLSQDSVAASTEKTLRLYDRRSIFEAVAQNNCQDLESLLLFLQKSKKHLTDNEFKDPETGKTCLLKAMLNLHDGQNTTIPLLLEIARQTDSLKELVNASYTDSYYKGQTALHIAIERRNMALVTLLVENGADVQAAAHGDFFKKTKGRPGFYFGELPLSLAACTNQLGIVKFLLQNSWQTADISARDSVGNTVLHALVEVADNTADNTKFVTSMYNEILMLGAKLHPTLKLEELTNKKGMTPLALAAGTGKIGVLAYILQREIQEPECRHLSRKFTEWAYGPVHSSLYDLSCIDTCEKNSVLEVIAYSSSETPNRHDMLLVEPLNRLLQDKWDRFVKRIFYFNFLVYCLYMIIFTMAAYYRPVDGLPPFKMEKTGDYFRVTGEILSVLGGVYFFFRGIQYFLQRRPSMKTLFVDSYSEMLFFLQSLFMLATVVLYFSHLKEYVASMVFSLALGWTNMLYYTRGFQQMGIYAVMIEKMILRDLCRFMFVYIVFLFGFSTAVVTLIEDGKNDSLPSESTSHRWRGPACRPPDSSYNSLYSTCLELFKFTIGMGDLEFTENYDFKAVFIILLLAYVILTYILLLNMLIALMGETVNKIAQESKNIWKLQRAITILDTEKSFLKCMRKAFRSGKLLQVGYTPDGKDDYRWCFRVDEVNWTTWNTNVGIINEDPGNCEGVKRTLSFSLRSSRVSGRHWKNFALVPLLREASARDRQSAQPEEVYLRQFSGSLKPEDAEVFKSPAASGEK
structure (smiles),measurement,value
"Cc1cc(NC(=O)N2CCC(F)(c3ncc(C[C@H](O)CO)cc3F)CC2)ccc1C(F)(F)F [ACQ, (S)-4-(5-(2,3-dihydroxypropyl)-3-fluoropyridin-2-yl)-4-fluoro-N-(3-methyl-4-(trifluoromethyl)phenyl)piperidine-1-carboxamide]",pIC50,≥ 7.30
